Experiments:
Assay type in all cases: in vivo
Conditions in all cases: 1000 g ai/ha, visual rating after approx. 10 d, 0 to 100 scale, 0 no effect, 100 complete control
[1] = test system: pigweed (Amaranthus retroflexus); assay: Test A preemergence, pigweed
Source text: (§1) Seeds of plant species selected from barnyardgrass (Echinochloa crus-galli), crabgrass (large crabgrass, Digitaria sanguinalis), kochia (Kochia scoparia), ragweed (common ragweed, Ambrosia elatior), morningglory (Ipomoea spp.), velvetleaf (Abutilon theophrasti), ryegrass, Italian (Italian ryegrass, Lolium multiflorum), foxtail, giant (giant foxtail, Setaria faberii), wheat (Triticum aestivum), corn (Zea mays), and pigweed (Amaranthus retroflexus), were planted into a blend of loam soil and sand and treated preemergence with a directed soil spray using test chemicals formulated in a non-phytotoxic solvent mixture which included a surfactant. At the same time, plants selected from these crop and weed species and also blackgrass (Alopecurus myosuroides), and galium (catchweed bedstraw, Galium aparine), were planted in pots containing the same blend of loam soil and sand and treated with postemergence applications of test chemicals formulated in the same manner. Plants ranged in height from 2 to 10 cm and were in the one- to two-leaf stage for the postemergence treatment. Treated plants and untreated controls were maintained in a greenhouse for approximately 10 d, after which time all treated plants were compared to untreated controls and visually evaluated for injury. Plant response ratings, summarized in Table A, are based on a 0 to 100 scale where 0 is no effect and 100 is complete control. A dash (-) response means no test result.

[2] = test system: crabgrass (large crabgrass, Digitaria sanguinalis); assay: Test A preemergence, crabgrass
Source text: as §1

[3] = test system: foxtail, giant (giant foxtail, Setaria faberii); assay: Test A postemergence, giant foxtail
Outline: (§2)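 Visual injury ratings on a 0–100 scale (100 = complete control) made after about 10 d in the greenhouse, relative to untreated plants. Treatment was either a directed soil spray after sowing in loam–sand (preemergence) or foliar on one- to two-leaf plants 2–10 cm tall (postemergence), using surfactant-containing solvent formulations.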

[4] = test system: corn (Zea mays); assay: Test A preemergence, corn
Source text: as §1

[5] = test system: wheat (Triticum aestivum); assay: Test A postemergence, wheat
Outline: as §2

[6] = test system: corn (Zea mays); assay: Test A postemergence, corn
Outline: as §2

[7] = test system: morningglory (Ipomoea spp.); assay: Test A preemergence, morningglory
Source text: as §1

[8] = test system: morningglory (Ipomoea spp.); assay: Test A postemergence, morningglory
Source text: as §1

[9] = test system: foxtail, giant (giant foxtail, Setaria faberii); assay: Test A preemergence, giant foxtail
Source text: as §1

[10] = test system: barnyardgrass (Echinochloa crus-galli); assay: Test A preemergence, barnyardgrass
Source text: as §1

[11] = test system: barnyardgrass (Echinochloa crus-galli); assay: Test A postemergence, barnyardgrass
Outline: as §2

[12] = test system: pigweed (Amaranthus retroflexus); assay: Test A postemergence, pigweed
Outline: as §2

[13] = test system: velvetleaf (Abutilon theophrasti); assay: Test A postemergence, velvetleaf
Source text: as §1

[14] = test system: velvetleaf (Abutilon theophrasti); assay: Test A preemergence, velvetleaf
Source text: as §1

[15] = test system: wheat (Triticum aestivum); assay: Test A preemergence, wheat
Source text: as §1

[16] = test system: crabgrass (large crabgrass, Digitaria sanguinalis); assay: Test A postemergence, crabgrass
Source text: as §1

SMILES | Plant response rating, Pigweed [1] | Plant response rating, Crabgrass [2] | Plant response rating, Foxtail, Giant [3] | Plant response rating, Corn [4] | Plant response rating, Wheat [5] | Plant response rating, Corn [6] | Plant response rating, Morningglory [7] | Plant response rating, Morningglory [8] | Plant response rating, Foxtail, Giant [9] | Plant response rating, Barnyardgrass [10] | Plant response rating, Barnyardgrass [11] | Plant response rating, Pigweed [12] | Plant response rating, Velvetleaf [13] | Plant response rating, Velvetleaf [14] | Plant response rating, Wheat [15] | Plant response rating, Crabgrass [16]
O=C(Nc1ccccc1Cl)C1C(=O)OCC1c1ccc(F)cc1 (racemic) [Compound 1] | 0 | 70 | 40 | 0 | 0 | 0 | 0 | 0 | 40 | 0 | 20 | 20 | 0 | 0 | 0 | 60
O=C(Nc1ccccc1F)C1C(=O)OCC1c1ccc(F)cc1 (racemic) [Compound 2] | 0 | 80 | 0 | 0 | 0 | 0 | 0 | 0 | 50 | 30 | 0 | 0 | 0 | 0 | 0 | 40
Cc1ccccc1NC(=O)C1C(=O)OCC1c1ccc(F)cc1 (racemic) [Compound 5] | 0 | 80 | 60 | 0 | 0 | 0 | 0 | 0 | 70 | 60 | 50 | 0 | 0 | 0 | 0 | 80

From patent US10582709B2, “Butyrolactones as herbicides” (FMC Corporation, priority 2015, dated 2020)
